# In ChEMBL document CHEMBL3098127, “A highly predictive 3D-QSAR model for binding to the voltage-gated sodium channel: design of potent new ligands” (Bioorg Med Chem, 2014):
# Test system: not listed separately
# Test: Displacement of [3H]BTX-B from neuronal voltage-gated sodium channel in rat cerebral cortex synaptoneurosomes after 60 mins by scintillation counting
# Type: tissue-based
# Settings: not given
row,Compound,IC50 [nM]
1,O=C(NCCN1CCN(C(c2ccccc2)c2ccccc2)CC1)c1ccccc1,283
2,c1ccc(CCCNCCc2ccccc2)cc1,340
3,c1ccc(CCN2CCN(C(c3ccccc3)c3ccccc3)CC2)cc1,257
4,c1ccc(C(CCCCCCNC(c2ccccc2)c2ccccc2)c2ccccc2)cc1,560
5,c1ccc(CCCN2CCN(C(c3ccccc3)c3ccccc3)CC2)cc1,192
6,c1ccc(C(CNC(c2ccccc2)c2ccccc2)c2ccccc2)cc1,3160
7,Fc1ccc(C(CCCNCCCc2ccccc2)c2ccc(F)cc2)cc1,229
8,c1ccc(C(CCCNC(c2ccccc2)c2ccccc2)c2ccccc2)cc1,1330
9,Fc1ccc(C(CCCNCCc2ccccc2)c2ccc(F)cc2)cc1,1230
10,Cc1ccc(C(=O)CCCN2CCN(C(c3ccccc3)c3ccccc3)CC2)cc1C,156
11,c1ccc(C(CCCCNC(c2ccccc2)c2ccccc2)c2ccccc2)cc1,562
12,c1ccc(CCCNCCCc2ccccc2)cc1,252
13,Fc1ccc(C(CCCN2CCN(C(c3ccccc3)c3ccccc3)CC2)c2ccc(F)cc2)cc1,119
14,c1ccc(C(CCCCCNC(c2ccccc2)c2ccccc2)c2ccccc2)cc1,345
15,CC(C)(C)c1ccc(C(=O)CCCN2CCN(C(c3ccccc3)c3ccccc3)CC2)cc1,128
16,c1ccc(C(CCNC(c2ccccc2)c2ccccc2)c2ccccc2)cc1,760

# Organism: Rattus norvegicus
# Settings: Cerebral cortex
row,Compound,logIC50
1,Cc1cccc(C)c1NC(=O)C(C)N (stereo not drawn),2.3
2,COc1cc2nc(N3CCN(C(=O)c4ccco4)CC3)nc(N)c2cc1OC,1.33
3,CCCCCCCC1(c2ccccc2)NC(=O)NC1=O (stereo not drawn),0.7
4,COc1ccc(CCN(C)CCCC(C#N)(c2cc(OC)c(OC)c(OC)c2)C(C)C)cc1OC (stereo not drawn),0.56
5,CCCCOc1cc(C(=O)NCCN(CC)CC)c2ccccc2n1,0.78
6,CCCCCCCCCC1(c2ccccc2)NC(=O)NC1=O (stereo not drawn),0.7
7,CCCCCCCC(O)(C(N)=O)c1ccccc1 (stereo not drawn),0.95
8,CCN(CC)CCOC(=O)c1ccc(N)cc1,2.04
9,NCCCCCCNS(=O)(=O)c1cccc2ccccc12,1.34
10,C[N+](C)(CC(=O)Nc1ccccc1)CC(=O)Nc1ccccc1,0.59
11,OC(CCCN1CCCCC1)(c1ccccc1)c1ccccc1,0.53
12,CCCNC(C)C(=O)Nc1ccccc1C (stereo not drawn),1.73
13,CCCCOc1cc(C(=O)OCCN(CC)CC)ccc1N,0.46
14,CC12C(=O)NC(=O)N1CCc1ccccc12 (stereo not drawn),2.86
15,CCC(OCCCc1ccccc1)(C(=O)CCCCc1ccccc1)c1ccccc1 (stereo not drawn),0.63
16,COC(=O)[C@H]1[C@@H](OC(=O)c2ccccc2)C[C@@H]2CC[C@H]1N2C,1.69
17,CCCCCCCCCC(O)(C(N)=O)c1ccccc1 (stereo not drawn),0.81
18,CCCOc1cc(N)ccc1C(=O)OCCN(CC)CC,1.38
19,CCCCN(CCCC)CCCOC(=O)c1ccc(N)cc1,0.43
20,CCOC(=O)c1ccc(N)cc1,2.86
21,CCCCCCCCCC1(c2ccccc2)NC(=O)N(Cc2ccccc2)C1=O (stereo not drawn),0.71
22,CN(C)C(=O)C(CCN1CCC(O)(c2ccc(Cl)c(C(F)(F)F)c2)CC1)(c1ccccc1)c1ccccc1,0.55
23,CCOC(=O)C1=C(C)NC(C)=C(C(=O)OC)C1c1cccc([N+](=O)[O-])c1 (stereo not drawn),1.56
24,COc1cc(C(=O)OCCCN2CCCN(CCCOC(=O)c3cc(OC)c(OC)c(OC)c3)CC2)cc(OC)c1OC,-0.22

row,Compound,logIC50
1,CCC1(c2ccccc2)NC(=O)N(S(=O)(=O)c2ccc(C)cc2)C1=O (stereo not drawn),1.7
2,CCC(O)(C(=O)NCCCc1ccccc1)c1ccccc1 (stereo not drawn),1.54
3,CCCC1(c2ccccc2)NC(=O)N(S(C)(=O)=O)C1=O (stereo not drawn),2.7
4,CCCCOc1ccc(OCCCN2CCOCC2)cc1,1
5,O=C1NC(=O)C2(CCCCCc3ccccc32)N1 (stereo not drawn),2.4
6,CCN1C(=O)NC(=O)C1(C)c1ccccc1 (stereo not drawn),2.4
7,CCCCCC(O)(C(=O)NCCc1ccccc1)c1ccccc1 (stereo not drawn),0.7
8,CCOC(=O)C1=C(C)NC(C)=C(C(=O)OC)C1c1cccc(Cl)c1Cl (stereo not drawn),1.57
9,CC(O)(C(=O)N1CCN(C(c2ccccc2)c2ccccc2)CC1)c1ccccc1 (stereo not drawn),0.8
10,Clc1ccc(C(c2ccc(Cl)cc2)[n+]2ccn(CC(OCc3ccc(Cl)cc3Cl)c3ccc(Cl)cc3Cl)c2)cc1 (stereo not drawn),0.85
11,CCN(CC)CCOC(=O)C1(C2CCCCC2)CCCCC1,0.45
12,OCCN1CCN(CCCN2c3ccccc3Sc3ccc(C(F)(F)F)cc32)CC1,0.57
13,O=C1NC(=O)C2(CCCCc3ccccc32)N1 (stereo not drawn),2.4
14,CCC(O)(C(=O)NCCc1ccccc1)c1ccccc1 (stereo not drawn),1.48
15,CCCCCCCCCC1(c2ccccc2)NC(=O)N(S(C)(=O)=O)C1=O (stereo not drawn),1.1
16,CCCNC(C)(C)COC(=O)c1ccccc1,0.88
17,O=C1NC(=O)C2(CCCc3ccccc32)N1 (stereo not drawn),2.93
18,O=C1NC(=O)C(c2ccccc2)(c2ccccc2)N1,1.6
19,CCCCCC1(c2ccccc2)NC(=O)N(S(C)(=O)=O)C1=O (stereo not drawn),2.05
20,CCCCCCCC1(c2ccccc2)NC(=O)N(S(C)(=O)=O)C1=O (stereo not drawn),1.11
21,CCCCCC(O)(C(=O)NCCC(c1ccccc1)c1ccccc1)c1ccccc1 (stereo not drawn),0.4
22,CC(C)CNCCOC(=O)c1ccc(N)cc1,1.74
23,CCCCCC1(c2ccccc2)NC(=O)NC1=O (stereo not drawn),1.59
24,CC1CCCCN1CCCOC(=O)c1ccccc1 (stereo not drawn),1.11

row,Compound,logIC50
1,CCCCCC1(c2ccccc2)NC(=O)N(Cc2ccccc2)C1=O (stereo not drawn),0.84
2,CCC1(c2ccccc2)NC(=O)N(CN2CCN(C(c3ccccc3)c3ccccc3)CC2)C1=O (stereo not drawn),0.52
3,CCCCCC(O)(C(=O)N1CCN(C(c2ccccc2)c2ccccc2)CC1)c1ccccc1 (stereo not drawn),0.68
4,CCCCCC1(c2ccccc2)OC(=O)NC1=O (stereo not drawn),2.5
5,Cc1ccc2c(S(=O)(=O)NCCCCCCN)cccc2c1,1.08
6,CCCCCCC1(c2ccccc2)NC(=O)NC1=O (stereo not drawn),1.11
7,CCC(O)(C(=O)NCCC(c1ccccc1)c1ccccc1)c1ccccc1 (stereo not drawn),0.91
8,CCN(CC)CC(=O)Nc1c(C)cccc1C,1.68
9,CN(C)C(=O)C(CCN1CCC(O)(c2ccc(Cl)cc2)CC1)(c1ccccc1)c1ccccc1,-0.56
10,COC(=O)C1=C(C)NC(C)=C(C(=O)OCC(C)C)C1c1ccccc1[N+](=O)[O-] (stereo not drawn),1.41
11,CC(Cc1ccccc1)NCCC(c1ccccc1)c1ccccc1 (stereo not drawn),-0.52
12,CN(C)CCC(c1ccccc1)c1ccccn1 (stereo not drawn),1.52
13,CCCCCC(O)(C(=O)NCCCc1ccccc1)c1ccccc1 (stereo not drawn),0.72
14,CCCCC1(c2ccccc2)NC(=O)N(C)C1=O (stereo not drawn),2.45
15,O=C(CCCN1CCC(O)(c2ccc(Cl)cc2)CC1)c1ccc(F)cc1,0.08
16,Cc1cccc(C)c1NC(=O)C1CCCCN1C (stereo not drawn),2.28
17,CCCCCC1(c2ccccc2)NC(=O)N(CN2CCN(C(c3ccccc3)c3ccccc3)CC2)C1=O (stereo not drawn),0.11
18,CC(C)COCC(CN(Cc1ccccc1)c1ccccc1)N1CCCC1 (stereo not drawn),-0.08
19,O=C1NC(=O)C2(CCc3ccccc32)N1 (stereo not drawn),3.32
20,CCCC1(c2ccccc2)NC(=O)NC1=O (stereo not drawn),2.21
21,CCCC1(c2ccccc2)OC(=O)NC1=O (stereo not drawn),2.65
22,CCOc1ccc(/N=C(\C)Nc2ccc(OCC)cc2)cc1,0.23
23,CCCCc1cc2ccccc2c(OCCN(C)C)n1,0.53
24,CCCCCCCC1(c2ccccc2)OC(=O)NC1=O (stereo not drawn),1.48
